Values quoted from earlier work in patent US10092615B2, “Nutritional supplements for improving male fertility” (Fairhaven Health, LLC, priority 2016, dated 2018).

How the values were obtained:
[1] = system: patients affected by male infertility; conditions: compared to placebo; for forward sperm motility (WMD): 95% CI (0.49, 23.16); for forward sperm motility (WMD) / total sperm motility (WMD): p=0.04; for total sperm motility (WMD): 95% CI (1.72, 13.14); for pregnancy rate (OR): 95% CI (2.08, 8.08), p<0.0001; for semen volume (WMD): 95% CI (−0.02, 0.58), p=0.07; for semen volume (WMD) / sperm concentration (WMD): without significant difference; for sperm concentration (WMD): 95% CI (−4.47, 15.84), p=0.27; for atypical sperm cell (WMD): 95% CI (−7.89, −3.56), p<0.00001
[2] = system: sperm samples from 22 asthenospermic men; conditions: 50 μM, in vitro incubation
infertile patients = conditions: given for a mean 103 days

SMILES: C[N+](C)(C)C[C@H](O)CC(=O)[O-] [L-carnitine]
- forward sperm motility (WMD) [1]: 11.83
- total sperm motility (WMD) [1]: 7.43
- pregnancy rate (OR) [1]: 4.10
- semen volume (WMD) [1]: 0.28
- sperm concentration (WMD) [1]: 5.69
- atypical sperm cell (WMD) [1]: −5.72

SMILES: CC(=O)O[C@H](CC(=O)[O-])C[N+](C)(C)C [acetyl-L-carnitine]
- forward sperm motility (WMD) [1]: 11.83
- total sperm motility (WMD) [1]: 7.43
- pregnancy rate (OR) [1]: 4.10
- semen volume (WMD) [1]: 0.28
- sperm concentration (WMD) [1]: 5.69
- atypical sperm cell (WMD) [1]: −5.72

SMILES: COC1=C(OC)C(=O)C(C/C=C(\C)CC/C=C(\C)CC/C=C(\C)CC/C=C(\C)CC/C=C(\C)CC/C=C(\C)CC/C=C(\C)CC/C=C(\C)CC/C=C(\C)CCC=C(C)C)=C(C)C1=O [Coenzyme Q10]
- sperm motility [2]: significant increases in motility
- standard sperm parameters (infertile patients): no significant changes
- fertilization rate (infertile patients; p<0.05): significant improvement
